The values that follow come from PubChem BioAssay AID652053 (Broad Institute, 2013).

Where “and” joins values, the source holds several entries; their conditions need not be identical. Identical values can stand only once. A value given as a limit tells only on which side of the number the result lay.

The assay concerns Huh7 psiCHECK-miR122 Renilla luciferase reporter, 48 h. The assay can be described thus: miR-122 inhibitors in Huh7 reporter cells, dose response, cell-based, Huh7 psiCHECK-miR122, Renilla luciferase, cherry-pick (AID 652053).
`O=C(COc1ccc(S(=O)(=O)NC2CCCCC2)cc1)Nc1ccc2c(c1)OCCO2`: the AC40 was 7.82 µM.
Consider `CCCC(=O)Nc1nc2ccc(S(=O)(=O)N3CCCCC3)cc2s1`, for which the AC40 was 8.84 µM.
On to `CC(C)c1ccc(S(=O)(=O)Nc2ccc(-n3cnnn3)cc2)cc1`, for which the AC40 was 2.55 µM.
For `Cc1nc2cc(NS(=O)(=O)c3c(C)c(C)cc(C)c3C)ccc2s1`, the AC40 was below 0.26 µM.
To `CCCC#Cc1ccc2c(c1)O[C@H](CN(C)C(=O)c1ccccn1)[C@@H](C)CN([C@H](C)CO)S2(=O)=O` belongs 11.3 µM.
For the compound `O=C(Nc1ccc(N2CCOCC2)c(S(=O)(=O)Nc2cc(Cl)ccc2Cl)c1)c1cccnc1`, the AC40 is 0.681 µM.
In the case of `C[C@H](CO)N1C[C@H](C)[C@H](CN(C)Cc2ccc(C(=O)Nc3ccccc3N)cc2)Oc2ccc(NS(=O)(=O)c3ccc(F)cc3)cc2CC1=O` it was 7.93 µM.
As to `COc1cc(CN(C)C(=O)C(=O)c2c[nH]c3ccccc23)ccc1O`, the AC40 is 6.67 µM.
As for `CCOC(=O)c1cc(S(=O)(=O)NCCc2ccccc2)cn1C`, the AC40 is 3.84 µM.
Regarding `CC1CCCN(C(=O)Cn2nnc(-c3cccnc3)n2)C1` (stereo unspecified), the AC40 was 14.4 µM.
To `Cc1ccc(S(=O)(=O)Nc2c(C)ccc3nsnc23)cc1` belongs 17.6 µM.
Take `COc1ccc(NS(=O)(=O)c2cccc(Cl)c2)cc1S(=O)(=O)N1CCCCC1`: the AC40 was 4.35 µM.
On to `COc1cccc(-c2ccc3c(c2)[C@H]2[C@H](CCN2S(=O)(=O)c2ccccc2C)[C@@H](CO)N3)c1`, for which the AC40 is 14.3 µM.
Turning to `CCOc1ccc(NS(=O)(=O)c2cc(NC(=O)C3CC3)ccc2C)cc1Br`, the AC40 is 2.15 µM.
On to `Cc1cc(C)cc(NS(=O)(=O)c2cc(Br)cnc2N)c1`, for which the AC40 is 0.656 µM.
Take `CCN(CC)S(=O)(=O)c1cc(NS(=O)(=O)c2cccc(Cl)c2)ccc1C`: the AC40 was 8.63 µM.
For `C[C@H](CO)N1C[C@H](C)[C@@H](CN(C)Cc2ccc(C(F)(F)F)cc2)Oc2c(NC(=O)C3CCCCC3)cccc2C1=O`, the AC40 was 0.596 µM.
Turning to `O=C(Nc1cccc(S(=O)(=O)Nc2ccc(Cl)cc2)c1)c1ccccn1`, the AC40 was 1.8 µM.
In the case of `O=S(=O)(NC1CCCCC1)c1cccc(-c2nnc(-c3ccccc3)o2)c1`, the AC40 was 2.16 µM.
On to `CC1CCCCC1NC(=S)Nc1ccc(SC(F)F)cc1` (stereo unspecified), for which the AC40 was 4.15 µM.
As to `O=C(c1ccccc1)C(O)(Cc1ccccc1)c1ccccc1` (stereo unspecified), the AC40 was 8.14 µM.
Regarding `COc1ccc2nc(Nc3nc(CSc4nc5ccccc5[nH]4)cc(=O)[nH]3)nc(C)c2c1`, the AC40 was 9.96 µM.
For `CN(Cc1ccccc1)S(=O)(=O)c1ccc(NC(=S)NC(=O)C2CCCCC2)cc1`, the AC40 was 13.4 µM.
With `CCC(C)(C)NC(=O)C(c1cccn1C)N(C(=O)Cn1nnc2ccccc21)c1ccc(OC)cc1OC` (stereo unspecified), the AC40 was 21 µM.
In the case of `CCc1ccc(NS(=O)(=O)c2ccc(OC)c3ncccc23)cc1` it was 0.362 µM.
Regarding `C[C@@H]1CN([C@H](C)CO)C(=O)Cc2cc(NC(=O)Nc3ccc(C(F)(F)F)cc3)ccc2O[C@@H]1CN(C)C(=O)Nc1cccc2ccccc12`, the AC40 is below 0.26 µM.
In the case of `CCOc1cc(C)c(S(=O)(=O)NC2CCCCC2)cc1C` it was 1.49 µM.
Regarding `COc1ccccc1NS(=O)(=O)c1cccc(NC(=O)c2[nH]c(C)c(C(C)=O)c2C)c1`, the AC40 was 7.17 µM.
To `Fc1ccccc1Cn1cc(C(=S)N2CCOCC2)c2ccccc21` belongs 12.4 µM; to `O=C(N/N=C/c1cccs1)C(O)c1ccccc1` (stereo unspecified), 15.2 µM.
To `COc1ccc(C(=O)NC(=S)Nc2ccc(S(=O)(=O)Nc3cc(OC)ncn3)cc2)cc1` belongs 4.82 µM; to `O=C(Nc1sc2c(c1C(=O)O)CCC2)c1ccco1`, 15.1 µM; to `COc1ccc(S(=O)(=O)NC2CCCCC2)c(C)c1C`, 1.57 µM.
In the case of `Cc1ccc([N+](=O)[O-])cc1N(CC(=O)Nc1ccc(S(=O)(=O)Nc2cccc(C(F)(F)F)c2)cc1)S(C)(=O)=O` it was 14 µM.
On to `CCOc1cc(C)c(C(C)C)cc1S(=O)(=O)NCc1ccccn1`, for which the AC40 is 0.392 µM.
Consider `COc1ccc(S(=O)(=O)N(C)C[C@H]2Oc3cc(C#CC4CCCC4)ccc3S(=O)(=O)N([C@H](C)CO)C[C@@H]2C)cc1`, for which the AC40 was 1.58 µM.
Turning to `COc1cc(NS(=O)(=O)c2ccc(OC)c(C)c2C)c(OC)cc1Cl`, the AC40 was 3.5 µM.
On to `COc1ccc(C(=O)N2C[C@@H]3[C@H](c4ccccc42)[C@H](CO)N3Cc2ccc3c(c2)OCO3)cc1`, for which the AC40 was 5.57 µM.
Take `C[C@H](CO)N1C[C@H](C)[C@@H](CN(C)CC2CCCCC2)Oc2c(NC(=O)c3ccncc3)cccc2C1=O`: the AC40 is 1.97 µM.
For the compound `Cc1ccc(-c2n[nH]c(=O)c3ccccc23)cc1S(=O)(=O)Nc1ccc(F)cc1`, the AC40 is 0.293 µM.
For the compound `CCN(CC)c1ccc(N)cc1S(=O)(=O)Nc1ccc(OC)cc1`, the AC40 was 27.3 µM.
As for `COc1ccc(C2C(Oc3ccccc3)C(=O)N2c2cc(C)ccc2C)cc1OC` (stereo unspecified), the AC40 was 23.1 µM.
As to `Cc1cc(C)c(C)c(S(=O)(=O)NC2CCN(Cc3ccccc3)CC2)c1C`, the AC40 was 9.53 µM.
For `CCc1ccc(NC(=O)Cc2cn(C)c3ccccc23)cc1`, the AC40 was 28.8 µM.
As to `C[C@H](CO)N1C[C@H](C)[C@H](CN(C)Cc2ccc(C(=O)Nc3ccccc3N)cc2)Oc2c(NC(=O)Nc3ccccc3)cccc2C1=O`, the AC40 was 30.8 µM.
For `Cc1csc2c(=O)sc(NC(=O)c3ccco3)nc12`, the AC40 is 14.5 µM.
For the compound `Cc1ccc(C(=O)NCc2ccncc2)cc1S(=O)(=O)Nc1cccc(C)c1C`, the AC40 was 1.93 µM.
As for `C[C@H](CO)N1C[C@H](C)[C@@H](CN(C)Cc2ccc3c(c2)OCO3)Oc2c(NC(=O)C3CCCCC3)cccc2C1=O`, the AC40 was 5.43 µM.
For the compound `O=S(=O)(Nc1ccc2ccccc2c1)c1ccccc1`, the AC40 was 12.5 µM.
For `S=C(Nc1ccc(Cl)cc1Cl)NC1CCCCC1`, the AC40 was 3.4 µM.
In the case of `CCCNC(=O)NC[C@H]1[C@@H](c2ccc(C3=CCCC3)cc2)[C@@H](CO)N1C(=O)CC`, the AC40 was 10.2 µM.
Regarding `COc1ccc(NS(=O)(=O)c2cc(NC(=O)CCc3ccc(OC)c(OC)c3)ccc2N2CCOCC2)cc1`, the AC40 is 1.77 µM.
In the case of `C[C@H]1CN([C@@H](C)CO)C(=O)Cc2cc(NC(=O)Nc3ccc(C(F)(F)F)cc3)ccc2O[C@H]1CN(C)S(=O)(=O)c1ccc(F)cc1` it was 14 µM; in that of `Cc1ccc(S(=O)(=O)N(CC(=O)N2CCC(C)CC2)c2cccc(C)c2)cc1`, 12 µM.
Consider `COc1ccc(S(=O)(=O)Nc2ccc(S(=O)(=O)N3CCCCC3)cc2)cc1C`, for which the AC40 was 2.44 µM.
On to `COc1c(S(=O)(=O)NCCCn2ccnc2)ccc(Cl)c1Cl`, for which the AC40 is 21.3 µM.
For the compound `COc1ccccc1C(=O)Nc1ccc2c(c1)C(=O)N(C)[C@H]1CC[C@@H](CC(=O)NCc3ccc(Cl)c(Cl)c3)O[C@H]1CO2`, the AC40 was 0.359 µM.
To `CCN(CC)c1ccc(NC(=O)COc2ccccc2C#N)cc1S(=O)(=O)Nc1ccccc1OC` belongs 0.325 µM.
As to `Cc1ccc(C(C)C)cc1S(=O)(=O)NCc1ccccn1`, the AC40 was 1.38 µM.
To `COc1ccc(OC)c(N(CC(=O)N2CCC(C)CC2)S(=O)(=O)c2ccccc2)c1` belongs 4.36 µM; to `CN1c2ccc(-c3ccccc3)cc2[C@H]2[C@H](CCN2S(=O)(=O)c2ccccc2F)[C@H]1CO`, 3.63 µM; to `O=S(=O)(c1ccccc1F)N1CC[C@@H]2[C@@H](CO)Nc3ccc(-c4ccc(F)cc4)cc3[C@@H]21`, 5.7 µM.
To `C[C@@H]1CN([C@@H](C)CO)C(=O)c2cccc(NS(=O)(=O)c3ccc(F)cc3)c2O[C@@H]1CN(C)Cc1ccc(C(=O)Nc2ccccc2N)cc1` belongs 10.4 µM; to `C[C@H](CO)N1C[C@H](C)[C@H](CN(C)Cc2ccc(C(=O)Nc3ccccc3N)cc2)Oc2c(NS(=O)(=O)c3ccccc3)cccc2C1=O`, 16.1 µM; to `COc1ccc(NS(=O)(=O)c2cc(Br)cc3c2N(C(C)=O)CC3)cc1`, 2.67 µM.
To `CC(=O)N1CCSc2ccc(S(=O)(=O)Nc3ccc(C)cc3)cc21` belongs 4.2 µM.
Regarding `O=C(CCc1ccc(S(=O)(=O)NC2CCCCC2)cc1)N(Cc1ccccc1)Cc1ccccc1`, the AC40 was 2.07 µM.
Regarding `Cc1ccc(C(=O)C2Oc3ccccc3C3CC(c4ccc(C)cc4)=NN23)cc1` (stereo unspecified), the AC40 was 1.17 µM.
Take `C[C@H](CO)N1C[C@H](C)[C@@H](CN(C)C(=O)Nc2ccc(C(F)(F)F)cc2)Oc2c(NC(=O)C3CCOCC3)cccc2C1=O`: the AC40 was 29.8 µM.
With `Cc1ccc(NS(=O)(=O)c2ccc3c(c2)n(C)c(=O)n3C)cc1C`, the AC40 is 3.8 µM.
To `O=S(=O)(NCCc1ccccc1)c1ccc(F)cc1Br` belongs 1.45 µM.
Take `Cc1ccc(S(=O)(=O)NCCN2CCOCC2)c(C)c1C`: the AC40 is 6.26 µM.
Take `Cc1ccc(C(=O)NCCSc2ccc(Cl)cc2)cc1S(=O)(=O)Nc1ccccc1`: the AC40 is 4.3 µM.
On to `COc1ccc(NS(=O)(=O)c2cc(NC(=O)c3ccco3)ccc2N2CCCCC2)cc1`, for which the AC40 is below 0.26 µM.
Turning to `CC(NC(=O)COc1ccccc1)C(=O)OCC(=O)c1cc2ccccc2o1` (stereo unspecified), the AC40 is 33.5 µM.
Consider `CN1c2ccc(-c3ccc(F)cc3)cc2[C@H]2[C@H](CCN2S(=O)(=O)c2cccc(F)c2)[C@H]1CO`, for which the AC40 was 8.83 µM.
To `COc1cc(C)c(Cl)cc1S(=O)(=O)NCc1ccco1` belongs 1.18 µM; to `COc1cccc(C(=O)N2C[C@H]3[C@@H](c4ccccc42)[C@H](CO)N3C(=O)c2ccc(F)cc2)c1`, 33.6 µM; to `CC(=O)N1CCc2cc(S(=O)(=O)Nc3cccc(C(F)(F)F)c3)ccc21`, 2.92 µM.
Consider `COc1ccccc1NS(=O)(=O)c1cc(N/C(=N/S(=O)(=O)c2ccccc2)c2ccc(F)cc2)ccc1Cl`, for which the AC40 is 3.27 µM.
As for `C[C@@H]1CCCCO[C@@H](CN(C)CC2CCCCC2)[C@@H](C)CN([C@H](C)CO)C(=O)c2cc(NC(=O)CCC(F)(F)F)ccc2O1`, the AC40 is 9.73 µM.
As to `CCc1ccc(-c2cc(C)no2)cc1S(=O)(=O)NCc1ccco1`, the AC40 is 1.61 µM.
`Cc1ccc(NS(=O)(=O)c2cc3c(cc2C)NC(=O)CO3)cc1`: the AC40 was 5.89 µM.
As for `O=C(Nc1nc2ccc(S(=O)(=O)N3CCCC3)cc2s1)C1CCCCC1`, the AC40 was 14.8 µM.
Take `C[C@H](CO)N1C[C@H](C)[C@@H](CN(C)Cc2ccc3c(c2)OCO3)Oc2c(NC(=O)C3CC3)cccc2C1=O`: the AC40 is 11.7 µM and 3.61 µM.
Take `O=S(=O)(NCc1ccccc1)c1ccc2c(c1)OCCO2`: the AC40 was 3.42 µM.
